# Source: patent publication US20040259865A1, “Pyrimidone compounds and pharmaceutical compositions containing the same” (priority 2001, published 2004)
# Read-outs that look alike come from different tables or passages of the source.
# Experiments:
# [1] = test system: guinea pig distal colon longitudinal muscles; settings: electrical stimulation, cited from earlier work; for pA2 value of the antagonistic action: against relaxing action of NECA
# [2] = test system: guinea pig distal colon longitudinal muscles; settings: cited from earlier work; for EC50: KCl in the presence of tetrodotoxin, read-out: Relaxing action EC50
# colon tract [3] = test: Contraction of the colon tract with Carbachol; set-up: species or system rat
# Experimental: (§1) The abdomen of a rat under anesthesia with ether was opened, and from the rectum to the cecum was excised therefrom and soaked in ice-cooled Tyrode solution (containing 136 mM NaCl, 2.7 mM KCl, 0.4 mM NaH2PO4.2H2O, 5.6 mM glucose, 11.9 mM NaHCO3, 1 mM MgCl2.6H2O, 1.8 mM CaCl2). Surrounding connective tissues were removed, and the intestinal tract was cut at positions apart by 1.5 cm from the rectum and by 3 cm from the cecum, to give a colon tract of about 3 cm in full length. Both the terminals of the colon tract were pinched respectively with Serrefines (trade name) to which a string had been connected, and the colon tract with the side of the cecum facing upward was immediately suspended in a Magnus tube filled with Tyrode solution previously warmed at 37° C., and then equilibrated by bubbling with a gas (O2/CO2=95/5). The string connected to the Serrefines (trade name) at the side of the cecum was suspended, and the change in the length of the colon tract was detected with an amplifier for strain pressure (Nihon Kohden Corporation).
# Carbachol (Sigma) at each concentration diluted 100-fold was added accumulatively in a volume of 1/100 to the Magnus tube, and the change in the length of the colon tract was measured, and the length thereof in the absence of Carbachol was regarded as 0% contraction, and the length thereof in the presence of 1.44 μM Carbachol was regarded as 100% contraction. In the experiment, 3 samples were used.
# SD IGS rats [4] = test: Evaluation of defecation-promoting action (Tables 8 and 10); format: in vivo, rat
# Excerpt: For example, the defecation-promoting actions of 8-phenyltheophylline (“8-PT” in the table below) and 5-[6-amino-8-(3-fluorophenyl)-9H-9-purinyl]-1-methyl-1,2-di hydro-2-pyridinone (Compound II in the table below) disclosed in Example Number 5 described in WO 2001/2400 were as shown below. 8-PT can be easily produced according to the description of Drug Development Research 47: 45-53 (1999), or is easily available as a commercial product (in this test, it was purchased from Sigma).
# That is, SD IGS rats (6- to 7-weeks-old, from Charles River) were placed in cages (3 animals/cage) and preliminarily allowed food and water ad libitum and raised for 1 week. On the day of the experiment, their weight was measured, a water-absorbing sheet was placed below each cage, and the animals were fasted but allowed water ad libitum throughout the experiment. Thee hours after fasting was initiated, the fecal pellets were recovered from each cage and observed for abnormality before the experiment, and then the compound suspended in 0.5% (w/v) methyl cellulose (MC) was orally administered in a dose of 5 ml/kg. On one hand, 0.5% (w/v) MC only was orally given to the control group. After administration of the compound, the rats were returned to the cage provided with a new water-absorbing sheet, and 180 minutes after the administration, the fecal pellets on the water-absorbing sheet were recovered from each cage, and the external appearance was observed, and the number of fecal pellets was counted. The number of fecal pellets is expressed per each cage.
# SD IGS rats [5] = test: Defecation-promoting action in rat (Test Example 2); format: in vivo; settings: for The number of fecalpellets/3 rats: 180 minutes after administration
# Experimental: (§2) SD IGS rats (6-weeks-old, from Charles River) were placed in cages (3 animals/cage) and preliminarily allowed food and water ad libitum and raised for 1 week. On the day of the experiment, their weight was measured, a water-absorbing sheet was placed below each cage, and the animals were fasted but allowed water ad libitum throughout the experiment. Three hours after fasting was initiated, the fecal pellets were recovered from each cage and observed for abnormality before the experiment, and then the compound suspended or dissolved in 0.5% (W/V) methyl cellulose (MC) was orally administered into each rat in a dose of 5 ml/kg. On one hand, 0.5% (W/V) MC only was orally given to the control group. After administering the compound, the rats were returned to the cage provided with anew water-absorbing sheet of known weight, and 180 minutes after the administration, the fecal pellets on the water-absorbing sheet were recovered from each cage, and the external appearance was observed, and the number of fecal pellets was counted. The number of fecal pellets is expressed per each cage (Table 4). After the fecal pellets were recovered, the water-absorbing sheet was weighed, and the weight determined by subtracting the initial weight of the water-adsorbing sheet from the weight after the experiment was regarded as the volume of urine and expressed as the volume of urine per 100 g of the body weight (Table 4).
# [6] = Urine volume / diuretic action in rat (Test Example 2); format: in vivo; settings: for Urine Volume (g/100 g body weight): 180 minutes
# Experimental: as §2
# SD IGS rats [7] = test: Contribution of A2b inhibition to defecation-promoting action (Test Example 3); format: in vivo, rat; settings: 180 minutes
# Experimental: as §2
# After administering the compounds, the rats were returned to the cage under which a new water-absorbing sheet had been installed, and after 180 minutes, the fecal pellets on the water-absorbing sheet were recovered from each cage, and the outward appearance was observed and the number of fecal pellets was counted. The number of fecal pellets is expressed per cage (Table 5).
# colon tract [8] = test: Inhibitory effect of adenosine receptor antagonist on suppressing action of NECA on Carbachol-stimulated contraction of the colon tract; set-up: species or system rat; settings: for Contraction (%) Mean: Carbachol 0.3 μM + NECA 1 μM = 0%, Carbachol 0.3 μM = 100%
# Experimental: as §1
# (§3) In the experiment, 3 samples were used.
# colon tract [9] = test: Inhibitory effect of NECA on Carbachol-stimulated contraction of the colon tract; set-up: species or system rat; settings: Carbachol 1.44 μM (singly added) = 100%
# Experimental: as §1, with “Surrounding” for “The abdomen of a rat under anesthesia with ether was opened, and from the rectum to the cecum was excised therefrom and soaked in ice-cooled Tyrode solution (containing 136 mM NaCl, 2.7 mM KCl, 0.4 mM NaH2PO4.2H2O, 5.6 mM glucose, 11.9 mM NaHCO3, 1 mM MgCl2.6H2O, 1.8 mM CaCl2). Surrounding”
# as §3
# [10] = 3 mg/kg oral, Table 8, n = 4 cages/group
# [11] = 10 mg/kg oral, Table 8, n = 4 cages/group
# [12] = against NECA, KCl + tetrodotoxin
smiles,measurement,setting,value
"CCNC(=O)[C@H]1O[C@@H](n2cnc3c(N)nc(NCCc4ccc(CCC(=O)O)cc4)nc32)[C@H](O)[C@@H]1O [CGS21680, 2-p-[2-carboxyethyl]phenetylamino-5′-N-ethylarboxyamide adenosine]",Relaxing action (in words),[1],very weak
same,Relaxing action (in words),"[2]; 1 μM, KCl + tetrodotoxin",did not act thereon
OC[C@H]1O[C@@H](n2cnc3c(NC4CCCC4)ncnc32)[C@H](O)[C@@H]1O [CPA],EC50,[2],12.6 µM
C[N+](C)(C)CCOC(N)=O [Carbachol],Contraction (%) Mean,"colon tract [3]; Carbachol 0.01 μM, 1.44 μM Carbachol = 100%",1.4%
same,Contraction (%) Mean,"colon tract [3]; Carbachol 0.04 μM, 1.44 μM Carbachol = 100%",24.5%
same,Contraction (%) Mean,"colon tract [3]; Carbachol 0.14 μM, 1.44 μM Carbachol = 100%",69.1%
same,Contraction (%) Mean,"colon tract [3]; Carbachol 0.44 μM, 1.44 μM Carbachol = 100%",87.0%
same,Contraction (%) Mean,colon tract [3]; Carbachol 1.44 μM (defined as 100%),100.0%
"Cn1cc(-n2c(-c3cccc(F)c3)nc3c(N)ncnc32)ccc1=O [Compound II, 5-[6-amino-8-(3-fluorophenyl)-9H-9-purinyl]-1-methyl-1,2-di hydro-2-pyridinone]",The number of fecalpellets/3 rats,"SD IGS rats [4]; 1 mg/kg oral, Table 8, n = 4 cages/group",12.5 ± 1.44 fecalpellets/3 rats
same,The number of fecalpellets/3 rats,SD IGS rats [4]; [10],18.5 ± 1.94 fecalpellets/3 rats
same,The number of fecalpellets/3 rats,SD IGS rats [4]; [11],20.75 ± 1.70 fecalpellets/3 rats
CCCn1c(=O)c2[nH]c(C3CCCC3)nc2n(CCC)c1=O [DPCPX],pA2 value of the antagonistic action,[1],8.8
same,pA2 value,"[2]; against CPA, KCl + tetrodotoxin",7.0
same,pA2 value,[2]; [12],6.6
"Nc1nc(N)c(-c2ccncc2)c(-c2cccc(F)c2)n1 [Example 1, 6-(3-Flurophenyl)-5-(4-pyridyl)-2,4-pyrimidine diamine]",The number of fecalpellets/3 rats,"SD IGS rats [4]; 3 mg/kg oral, Table 10, n = 6 cages/group",14.83 ± 1.82 fecalpellets/3 rats
same,The number of fecalpellets/3 rats,"SD IGS rats [4]; 10 mg/kg oral, Table 10, n = 6 cages/group",23.17 ± 2.94 fecalpellets/3 rats
"Cn1c(=O)c2[nH]c(-c3ccccc3)nc2n(C)c1=O [Example 8-PT, 8-phenyltheophylline]",The number of fecalpellets/3 rats,SD IGS rats [4]; [10],8.75 ± 1.75 fecalpellets/3 rats
same,The number of fecalpellets/3 rats,SD IGS rats [4]; [11],13.75 ± 0.85 fecalpellets/3 rats
same,pA2 value of the antagonistic action,[1],6.5
same,pA2 value,[2]; [12],5.7
CCCn1c(=O)c2nc(C34CC5CC(CC3C5)C4)[nH]c2n(CCC)c1=O [KW 3902],The number of fecalpellets/3 rats,SD IGS rats [5]; 0.3 mg/kg oral,10.67 ± 2.08 fecalpellets/3 rats
same,The number of fecalpellets/3 rats,SD IGS rats [5]; 1 mg/kg oral,14.50 ± 1.18 fecalpellets/3 rats
same,The number of fecalpellets/3 rats,SD IGS rats [5]; 3 mg/kg oral,12.83 ± 1.66 fecalpellets/3 rats
same,Dose at which the defecation-promoting action reaches the maximum,"SD IGS rats [5]; rat, oral",1 mg/kg
same,Defecation-promoting action (in words),"SD IGS rats [5]; rat, oral, Table 4",exhibits a defecation-promoting action
same,Urine Volume (g/100 g body weight),[6]; 0.3 mg/kg oral,2.08 ± 0.04 g/100 g body weight
same,Urine Volume (g/100 g body weight),[6]; 1 mg/kg oral,2.15 ± 0.09 g/100 g body weight
same,Urine Volume (g/100 g body weight),[6]; 3 mg/kg oral,2.01 ± 0.06 g/100 g body weight
same,Diuretic action (comparison in words),"[6]; rat, oral",stronger diuretic action than Compound I
same,The number of fecalpellets/3 rats,SD IGS rats [7]; 1 mg/kg together with KW 6002 (1 mg/kg),18.25 ± 1.49 fecalpellets/3 rats
same,The number of fecalpellets/3 rats,"SD IGS rats [7]; 1 mg/kg, without KW 6002",9.00 ± 1.08 fecalpellets/3 rats
CCCN1C(=O)N2CC(CC)N=C2c2[nH]c(C34CC5CC(CC3C5)C4)nc21 (stereo not shown) [KW 20274],Contraction (%) Mean,colon tract [8]; antagonist 0.1 μM,−8.2%
same,Contraction (%) Mean,colon tract [8]; antagonist 0.4 μM,−26.0%
same,Contraction (%) Mean,colon tract [8]; antagonist 1.4 μM,−40.0%
same,Contraction (%) Mean,colon tract [8]; antagonist 4.4 μM,−71.0%
same,Inhibition of the suppressing effect of NECA on the contraction (in words),"colon tract [8]; rat colon tract, Carbachol + NECA",did not show any inhibitory effect
"CCNC(=O)[C@H]1O[C@@H](n2cnc3c(N)ncnc32)[C@H](O)[C@@H]1O [NECA, 5′-N-ethylcarboxyamide adenosine]",Contraction (%) Mean,colon tract [9]; NECA 0.1 μM,89.0%
same,Contraction (%) Mean,colon tract [9]; NECA 0.4 μM,75.3%
same,Contraction (%) Mean,colon tract [9]; NECA 14.4 μM,54.9%
same,EC50,[2],10.4 µM
